How the values were obtained:
[1] = system: SK-MEL-28; assay: Cell counting after 7 day peptide treatment; type: cell-based, human; conditions: CPP mimicking peptides, conc 10 µM, start count 10
Protocol: (§1) The ability to block interaction of MITF, SOX10 and STAT3 with active transcriptional complex and inhibit proliferation and stimulate apoptosis of melanoma cells were tested on human melanoma cell lines SK-MEL-28 and WM 266-4, and mouse melanoma cell line B16. Methods. Human melanoma cell lines SK-MEL-28 and WM 2664 and mouse melanoma cell line B16 were obtained from the American Tissue Culture Collection (ATCC). Cells were cultured according to recommendations of ATCC (DMEM, 10% FCS, penicillin+streptomycin) and used in experiments after two passages in the laboratory. Cells were grown in 24 well plates, each treatment in triplicates. Cells were plated 16 hours prior treatments started. Peptides were added to the media, and media was changed every day during 7 day experiment. CPP concentration was 10 μM For cell counting, cells were trypsinized (0.25% Trypsin, 2 mM EDTA) in Ca^+2, Mg^+2 free PBS. Cells were precipitated and resuspended in 100 μl of PBS, and 5 μl were removed for counting Methods. Human melanoma cell lines SK-MEL-28 and WM 266-4 were obtained from the American Tissue Culture Collection (ATCC) and were cultured according to recommendations of ATCC (DMEM, 10% FCS, penicillin+streptomycin). Human keratinocytes were obtained from Clonetics and cultured according to manufacturers protocol. Cells were used in experiments after two passages in the laboratory. Cells were grown in 24 well plates, each treatment in triplicates. Cells were plated 16 hours prior treatments started. Peptides were added to the media, and media was changed every day during 7 day experiment. CPP concentration was 10 μM. For cell counting, cells were trypsinized (0.25% Trypsin, 2 mM EDTA) in Ca, Mg free PBS. Cells were precipitated and resuspended in 100 μl of PBS, and 5 μl were removed for counting.

[2] = system: WM 266-4; assay: Cell counting after 7 day peptide treatment; type: cell-based, human; conditions: CPP mimicking peptides, conc 10 µM, start count 10
Protocol: as §1, with “CPP concentration was 10 μM For cell counting, cells were trypsinized (0.25% Trypsin, 2 mM EDTA) in Ca^+2, Mg^+2 free PBS.” left out, “CPP concentration was 10 μM.” left out

[3] = system: B16; assay: Cell counting after 7 day peptide treatment; type: cell-based, mouse; conditions: CPP mimicking peptides, conc 10 µM, start count 10
Protocol: The ability to block interaction of MITF, SOX10 and STAT3 with active transcriptional complex and inhibit proliferation and stimulate apoptosis of melanoma cells were tested on human melanoma cell lines SK-MEL-28 and WM 266-4, and mouse melanoma cell line B16. Methods. Human melanoma cell lines SK-MEL-28 and WM 2664 and mouse melanoma cell line B16 were obtained from the American Tissue Culture Collection (ATCC). Cells were cultured according to recommendations of ATCC (DMEM, 10% FCS, penicillin+streptomycin) and used in experiments after two passages in the laboratory. Cells were grown in 24 well plates, each treatment in triplicates. Cells were plated 16 hours prior treatments started. Peptides were added to the media, and media was changed every day during 7 day experiment. […] Cells were precipitated and resuspended in 100 μl of PBS, and 5 μl were removed for counting

[4] = system: SK-MEL-28; assay: WST-1 test (mitochondrial activity); type: cell-based, human; conditions: CPP mimicking peptides, conc 10 µM, untreated = 1
[5] = system: WM 266-4; assay: WST-1 test (mitochondrial activity); type: cell-based, human; conditions: CPP mimicking peptides, conc 10 µM, untreated = 1
Protocol: Methods. Human melanoma cell lines SK-MEL-28 and WM 2664 and mouse melanoma cell line B16 were obtained from the American Tissue Culture Collection (ATCC). Cells were cultured according to recommendations of ATCC (DMEM, 10% FCS, penicillin+streptomycin) and used in experiments after two passages in the laboratory. Cells were grown in 24 well plates, each treatment in triplicates. Cells were plated 16 hours prior treatments started. Peptides were added to the media, and media was changed every day during 7 day experiment. […] Methods. Human melanoma cell lines SK-MEL-28 and WM 266-4 were obtained from the American Tissue Culture Collection (ATCC) and were cultured according to recommendations of ATCC (DMEM, 10% FCS, penicillin+streptomycin). Human keratinocytes were obtained from Clonetics and cultured according to manufacturers protocol. Cells were used in experiments after two passages in the laboratory. Cells were grown in 24 well plates, each treatment in triplicates. Cells were plated 16 hours prior treatments started. Peptides were added to the media, and media was changed every day during 7 day experiment. […] WST-1 test was performed to measure mitochondrial activity, which can also be used as a measure of cell number.

[6] = system: B16; assay: WST-1 test (mitochondrial activity); type: cell-based, mouse; conditions: CPP mimicking peptides, conc 10 µM, untreated = 1
Protocol: Methods. Human melanoma cell lines SK-MEL-28 and WM 2664 and mouse melanoma cell line B16 were obtained from the American Tissue Culture Collection (ATCC). Cells were cultured according to recommendations of ATCC (DMEM, 10% FCS, penicillin+streptomycin) and used in experiments after two passages in the laboratory. Cells were grown in 24 well plates, each treatment in triplicates. Cells were plated 16 hours prior treatments started. Peptides were added to the media, and media was changed every day during 7 day experiment. […]

[7] = system: Dct/Trp2 promoter; assay: Transient CAT assay, Dct/Trp2 proximal promoter-CAT construct in SK-MEL-28; type: cell-based, human; conditions: CPP concentration 10 μM
Protocol: (§2) SOX10 and MITF interact with the proximal promoter of Dct/Trp2 gene and induces its activity (Ludwig A. et al., FEBS Lett. 556 (1-3):236-244 (2004)). Thus, a Dct/Trp2 proximal promoter reporter construct was used to analyze effect of mimicking peptides on promoter activity using transient CAT assay.
(§3) Methods. Human melanoma cell lines SK-MEL-28 and WM 266-4 were obtained from the American Tissue Culture Collection (ATCC) and were cultured according to recommendations of ATCC (DMEM, 10% FCS, penicillin+streptomycin). Dct/Trp2 proximal promoter-CAT construct (Ludwig et al., supra) was used in all experiments.
(§4) Cells were transfected by using FuGene reagent (Roche Molecular Biochemicals) according to manufacturer's instructions. Freeze-thaw lysates of cells collected 48 h after the transfection were assayed for CAT activity as described (Pothier, F. et al., DNA Cell Biol. 11(1):83-90 (1992)). At least two different DNA preparations were tested for each plasmid. To normalize the transfection efficiencies, cells were cotransfected with pON260 expressing β-galactosidase (Spaete, R. R. and Mocarski, E. S., J. Virol. 54(3):817-24 (1985); Spaete, R. R. and Mocarski, E. S., J. Virol. 56(1):13543 (1985)). All the CAT activities were normalized to total protein and β-galatosidase activity.
(§5) Following transfection, cells were grown in 6 well plates, each treatment in triplicates. Peptides were added to the media and media was changed every day during the 7 day experiment. CPP concentration was 10 μM.

[8] = system: Dct/Trp2 promoter; assay: Transient CAT assay, Dct/Trp2 proximal promoter-CAT construct in WM 266-4; type: cell-based, human; conditions: CPP concentration 10 μM
Protocol: as §2, §3, §4, §5

For “RPKKRKVRRRQLMLEPYALDMSRIRVLSESLGLATQSG [Scr-int1, reference compound]”, the “Cell Count 7 d” value [1] was 53, the “Cell Count 7 d” value [2] was 41 and the “Cell Count 7 d” value [3] was 83. For the same sequence, the “WST-1 7 d” value [4] was 1, the “WST-1 7 d” value [5] was 1 and the “WST-1 7 d” value [6] was 1.1. For the same sequence, the “Dct/Trp2 promoter activity (CAT assay)” value [7] was “do not have significant effect” and the “Dct/Trp2 promoter activity (CAT assay)” value [8] was “do not have significant effect”.
